Key:
[1] = Solid state / storage stability; assay type: physicochemical
Excerpt: The stability of omeprazole sodium form A obtained by the processes of the present invention may be determined by standard protocol for characterisation of stability of a pharmaceutically active substance (EU: Adopted by CPMP, March 2003, issued as CPMP/ICH/2736/99—“Committee for proprietary medical products; Note for Guidance on ICH Q1A (R2) Stability testing guidelines: Stability testing of new drug substances and products”). Packed omeprazole sodium form A was aged for a definite period of time (1 month, 3 months, 6 months) under accelerated conditions of aging (at a temperature of 40° C. and 75% relative humidity which is a standard accelerated condition for stability testing of pharmaceutical formulations) and/or stress condition of aging (at a temperature of 60° C. which is a standard stress condition for stability testing of pharmaceutically active substances). Determination of absorbance measured according to the PhEur method (PhEur 3 Suppl 2000) was used as a criterion for evaluation of the sample quality during stability testing. It has previously been shown that measurement of absorbance is a more sensitive method for monitoring the process of omeprazole sodium decomposition than, for example, detection of present impurities using chromatographic methods (PhEur 3 Suppl 2000).

Solubility in water = assay type: physicochemical
[2] = prior art description (US 6,207,188, US 2004/0224987); cited from earlier work
[3] = prior art description (EP-B-124 495, US 6,207,188, US 2004/0224987); cited from earlier work

## COc1ccc2[n-]c([S+]([O-])Cc3ncc(C)c(OC)c3C)nc2c1.[Na+] (centres unmarked) [omeprazole sodium form A, omeprazole sodium]
[1]
  stability on storage (chemical composition, hygroscopicity, solubility, crystalline form): stable
Solubility in water
  solubility in water: highly soluble in water

## COc1ccc2[n-]c([S+]([O-])Cc3ncc(C)c(OC)c3C)nc2c1.O.[Na+] (centres unmarked) [omeprazole sodium form B, omeprazole sodium monohydrate salt]
[2]
  thermodynamic stability as described in prior art: thermodynamically stable
[3]
  hygroscopicity as described in prior art: non-hygroscopic

## COc1ccc2[n-]c([S+]([O-])Cc3ncc(C)c(OC)c3C)nc2c1.[Na+] (centres unmarked) [omeprazole sodium form E, omeprazole sodium]
[1]; stored under nitrogen atmosphere
  stability under special conditions: stable compounds under special conditions

Reference: patent publication US8247566B2, “Crystalline solvate of omeprazole sodium” (Lek Pharmaceuticals d.d., priority 2005, dated 2012)
